Experimental data: PubChem BioAssay AID1918937 (Molecular Pharmacology Branch, DTP, NCI, 2023)

Tested on: 521955-158-R2-J5-PDC complex spheroid viability
Test: Anticancer human tumor 521955-158-R2-J5-PDC patient-derived pancreatic carcinoma cell line growth inhibition
Conditions: for IC50: curve of first compound; for viability, T/C: stronger effect = lower value
From the text: Multicellular complex tumor spheroid response to LSD1 Inhibitor Iadademstat in combination with a variety of drugs and investigational agents in selected tumor cell lines
The current study was undertaken to assess response to LSD1 inhibitors in combination with standard-of-care drugs and investigational agents in solid tumor complex spheroid models as well as in the K-562 leukemia. Complex spheroids include a stromal component modeled by human endothelial cells (HUVEC) and fibroblasts modeled by human mesenchymal stem cells (MSCs). The concentration ranges selected for each drug and investigational agent were based upon clinically achievable concentrations if the clinical Cmax of the agent was known.
Compounds. The drugs and investigational agents used in this study are listed on Table 1. All of the agents used, including staurosporine (NSC755774) and gemcitabine (NSC613327), were obtained from the Developmental Therapeutics Program, NCI. FDA-approved anticancer drugs are available from the NCI at http://dtp.nci.nih.gov/branches/dscb/oncology_drugset_explanation.html. Drugs and investigational agents were >95% pure by proton nuclear magnetic resonance (NMR) and liquid chromatography/mass spectrometry (LC/MS). Stock solutions were prepared at 400x in DMSO, stored at -70 degrees C, and diluted in fresh medium prior to their use. The final concentration of DMSO in cell culture wells never exceeded 0.25% (v/v). The FDA-approved anticancer drug set is available from the Developmental Therapeutics Program at https://dtp.cancer.gov/organization/dscb/obtaining/available_plates.htm. All drugs and investigational agents were tested over a range starting from a high concentration at or near the clinical Cmax and decreasing in half-log increments. If the clinical Cmax for an agent had not been determined, the highest concentration tested was 10 microM.
Cell Lines. The patient-derived cancer cell (PDC) lines: 292921-168-R-J2-PDC, K24384-001-R-PDC, and 521955-158-R2-J5-PDC pancreatic carcinomas, 556581-035-R-J1 ovarian carcinoma, 324938-238-R-J1-PDC, 855422-203-R-J1-PDC and 883617-216-R-J1-PDC urothelial bladder carcinomas, 743489-274-T-PDC renal cell carcinoma, 138582-R-J1 Merkel cell tumor, K60290-347-R-J1 and K57222-313-R-J1-PDC glioblastomas, 653999-131-R-J2-PDC, LG0703-F948-PDC, and 349418-098-R-PDC non-small cell lung carcinomas, 885512-296-R-J2-PDC, 171881-019-R-J1-PDC breast carcinomas and 186277-243-T-J2-PDC and 233499-124-R-J2-PDC colon carcinomas were obtained from the NCI Patient-Derived Models Repository (PDMR, https://pdmr.cancer.gov). The established cell lines NCI/ADR-RES (RRID:CVCL_14520 and OVCAR-5 (RRID:CVCL_1628) ovarian carcinomas, 786-O (RRID:CVCL_1051) and A498 (RRID:CVCL_A498) renal cell carcinoma, NCI-H211 (ATCC, cat. CRL-5824; RRID:CVCL_1529), NCI-H196 (ATCC, cat. CRL-5823, RRID:CVCL_1509), SW 1271 (ATCC, cat. CRL-2177, RRID:CVCL_1716) and NCI-H1876 (ATCC, cat. CRL-5902, RRID:CVCL_1503) small cell lung carcinomas, MDA-MB-231 (RRID:CVCL_0062) and MDA-MB-468 (RRID:CVCL_0419)breast carcinomas (10-12). Pooled donor human umbilical vein endothelial cells (HUVEC, Lonza, cat. CC-2519) and human mesenchymal stem cells (hMSC, Lonza, cat. PT-2501) were purchased from Lonza (Walkersville, MD).
Cell Culture. All cells were maintained in an incubator at 37 degrees C and 5% CO2 with 95% humidity. The PDC lines were cultured according to standard operating procedures established by the NCI PDMR (https://pdmr.cancer.gov). Briefly all PDCs were thawed and cultured in Matrigel-coated flasks prepared with a working solution of 1X Ham's F-12 nutrient mix, without supplementation (Invitrogen, Waltham, MA, cat. 11765054), 100 U/mL penicillin-streptomycin (Invitrogen, cat. 15140122), and 2.5% Matrigel (Corning Inc., Corning, NY, cat. 354248) for the first three passages. […]

[1] = second compound 0.1 µM, first compound 0.000949 µM
[2] = second compound 0.1 µM, first compound 0.003 µM
[3] = second compound 0.1 µM, first compound 0.00949 µM
[4] = second compound 0.1 µM, first compound 0.03 µM
[5] = second compound 0.1 µM, first compound 0.0949 µM
[6] = second compound 0.1 µM, first compound 0.3 µM
[7] = second compound 0.316 µM, first compound 0.000949 µM
[8] = second compound 0.316 µM, first compound 0.003 µM
[9] = second compound 0.316 µM, first compound 0.00949 µM
[10] = second compound 0.316 µM, first compound 0.03 µM
[11] = second compound 0.316 µM, first compound 0.0949 µM
[12] = second compound 0.316 µM, first compound 0.3 µM
[13] = second compound 1 µM, first compound 0.000949 µM
[14] = second compound 1 µM, first compound 0.003 µM
[15] = second compound 1 µM, first compound 0.00949 µM
[16] = second compound 1 µM, first compound 0.03 µM
[17] = second compound 1 µM, first compound 0.0949 µM
[18] = second compound 1 µM, first compound 0.3 µM
[19] = second compound 3.16 µM, first compound 0.000949 µM
[20] = second compound 3.16 µM, first compound 0.003 µM
[21] = second compound 3.16 µM, first compound 0.00949 µM
[22] = second compound 3.16 µM, first compound 0.03 µM
[23] = second compound 3.16 µM, first compound 0.0949 µM
[24] = second compound 3.16 µM, first compound 0.3 µM
[25] = second compound 10 µM, first compound 0.000949 µM
[26] = second compound 10 µM, first compound 0.003 µM
[27] = second compound 10 µM, first compound 0.00949 µM
[28] = second compound 10 µM, first compound 0.03 µM
[29] = second compound 10 µM, first compound 0.0949 µM
[30] = second compound 10 µM, first compound 0.3 µM
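Also: spheroids exposed to agents for seven days.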
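For viability, T/C in this document: percent of DMSO vehicle control luminescence viability.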

## CCc1c2c(nc3ccc(O)cc13)-c1cc3c(c(=O)n1C2)COC(=O)[C@]3(O)CC + NC1CC1c1ccc(-c2cccc(O)c2)cc1
Second compound 0.1 µM
  IC50: < 0.949 nM
Second compound 0.316 µM
  IC50: < 0.949 nM
Second compound 1 µM
  IC50: < 0.949 nM
Second compound 3.16 µM
  IC50: < 0.949 nM
Second compound 10 µM
  IC50: < 0.949 nM
[1]
  viability, T/C: 10.3%
[2]
  viability, T/C: 8.53%
[3]
  viability, T/C: 1.37%
[4]
  viability, T/C: 0.77%
[5]
  viability, T/C: 0.88%
[6]
  viability, T/C: 1.18%
[7]
  viability, T/C: 14%
[8]
  viability, T/C: 8.17%
[9]
  viability, T/C: 1.18%
[10]
  viability, T/C: 0.73%
[11]
  viability, T/C: 0.87%
[12]
  viability, T/C: 1.5%
[13]
  viability, T/C: 11.7%
[14]
  viability, T/C: 9.8%
[15]
  viability, T/C: 1.34%
[16]
  viability, T/C: 1.1%
[17]
  viability, T/C: 0.66%
[18]
  viability, T/C: 1.78%
[19]
  viability, T/C: 13.4%
[20]
  viability, T/C: 8.84%
[21]
  viability, T/C: 1.07%
[22]
  viability, T/C: 0.72%
[23]
  viability, T/C: 0.84%
[24]
  viability, T/C: 2.14%
[25]
  viability, T/C: 17.5%
[26]
  viability, T/C: 13%
[27]
  viability, T/C: 1.18%
[28]
  viability, T/C: 0.43%
[29]
  viability, T/C: 0.52%
[30]
  viability, T/C: 0.74%

## Nc1ccn(C2OC(CO)C(O)C2(F)F)c(=O)n1 (stereo not given) + NC1CC1c1ccc(-c2cccc(O)c2)cc1
Second compound 0.1 µM
  IC50: 66.8 nM
Second compound 0.316 µM
  IC50: 70.8 nM
Second compound 1 µM
  IC50: 69.9 nM
Second compound 3.16 µM
  IC50: 57 nM
Second compound 10 µM
  IC50: 36.5 nM
[1]
  viability, T/C: 86.9%
[2]
  viability, T/C: 86.4%
[3]
  viability, T/C: 84%
[4]
  viability, T/C: 66.8%
[5]
  viability, T/C: 42.8%
[6]
  viability, T/C: 23.4%
[7]
  viability, T/C: 83.2%
[8]
  viability, T/C: 89.1%
[9]
  viability, T/C: 79.1%
[10]
  viability, T/C: 66%
[11]
  viability, T/C: 44.9%
[12]
  viability, T/C: 24.9%
[13]
  viability, T/C: 90.8%
[14]
  viability, T/C: 84%
[15]
  viability, T/C: 87.3%
[16]
  viability, T/C: 63.3%
[17]
  viability, T/C: 45.8%
[18]
  viability, T/C: 26.5%
[19]
  viability, T/C: 90.1%
[20]
  viability, T/C: 94.8%
[21]
  viability, T/C: 92%
[22]
  viability, T/C: 67.7%
[23]
  viability, T/C: 36.3%
[24]
  viability, T/C: 27.5%
[25]
  viability, T/C: 97.4%
[26]
  viability, T/C: 87.9%
[27]
  viability, T/C: 80.3%
[28]
  viability, T/C: 52.5%
[29]
  viability, T/C: 36%
[30]
  viability, T/C: 33.9%

## O=C(c1cc(Cc2n[nH]c(=O)c3ccccc23)ccc1F)N1CCN(C(=O)C2CC2)CC1 + NC1CC1c1ccc(-c2cccc(O)c2)cc1
Second compound 0.1 µM
  IC50: > 10000 nM
Second compound 0.316 µM
  IC50: > 10000 nM
Second compound 1 µM
  IC50: > 10000 nM
Second compound 3.16 µM
  IC50: > 10000 nM
Second compound 10 µM
  IC50: > 10000 nM
Second compound 0.1 µM, first compound 0.0316 µM
  viability, T/C: 80.9%
Second compound 0.1 µM, first compound 0.1 µM
  viability, T/C: 87.5%
Second compound 0.1 µM, first compound 0.316 µM
  viability, T/C: 88.4%
Second compound 0.1 µM, first compound 1 µM
  viability, T/C: 87.4%
Second compound 0.1 µM, first compound 3.16 µM
  viability, T/C: 81.5%
Second compound 0.1 µM, first compound 10 µM
  viability, T/C: 69.1%
Second compound 0.316 µM, first compound 0.0316 µM
  viability, T/C: 90.5%
Second compound 0.316 µM, first compound 0.1 µM
  viability, T/C: 82.3%
Second compound 0.316 µM, first compound 0.316 µM
  viability, T/C: 89.1%
Second compound 0.316 µM, first compound 1 µM
  viability, T/C: 74.7%
Second compound 0.316 µM, first compound 3.16 µM
  viability, T/C: 74.6%
Second compound 0.316 µM, first compound 10 µM
  viability, T/C: 66.2%
Second compound 1 µM, first compound 0.0316 µM
  viability, T/C: 77.9%
Second compound 1 µM, first compound 0.1 µM
  viability, T/C: 79.7%
Second compound 1 µM, first compound 0.316 µM
  viability, T/C: 79.7%
Second compound 1 µM, first compound 1 µM
  viability, T/C: 77.1%
Second compound 1 µM, first compound 3.16 µM
  viability, T/C: 67%
Second compound 1 µM, first compound 10 µM
  viability, T/C: 59.5%
Second compound 3.16 µM, first compound 0.0316 µM
  viability, T/C: 81.8%
Second compound 3.16 µM, first compound 0.1 µM
  viability, T/C: 82.2%
Second compound 3.16 µM, first compound 0.316 µM
  viability, T/C: 83.3%
Second compound 3.16 µM, first compound 1 µM
  viability, T/C: 75.6%
Second compound 3.16 µM, first compound 3.16 µM
  viability, T/C: 69.1%
Second compound 3.16 µM, first compound 10 µM
  viability, T/C: 55.8%
Second compound 10 µM, first compound 0.0316 µM
  viability, T/C: 87.7%
Second compound 10 µM, first compound 0.1 µM
  viability, T/C: 84.9%
Second compound 10 µM, first compound 0.316 µM
  viability, T/C: 83.4%
Second compound 10 µM, first compound 1 µM
  viability, T/C: 78.4%
Second compound 10 µM, first compound 3.16 µM
  viability, T/C: 68.1%
Second compound 10 µM, first compound 10 µM
  viability, T/C: 55.7%
